Assays:
Type in all cases: biochemical
[1] = target: FXa (Homo sapiens, UniProt P00742); assay: Determination of selectivity: FXa inhibition, chromogenic substrate S2765 assay; details: fold selectivity for FXIIa over FXa
Description: (§1) The activities of the compounds of the invention have been determined in vitro using the following assays protocols for the screening of activity of FXIIa and other proteases. Each of these assays were performed in a purified system employing the use of chromogenic assays in microplate plate wells. Chromogenic peptide substrates mimicking natural protein substrates are attached via an amide bond to a chromogenic group. Paranitroaniline (pNA) is released from the peptide following catalyses by the proteolytic enzyme; the absorbance increases and can be monitored at 405 nm.
(§2) All compounds were dissolved in 100% (v/v) DMSO to a stock concentration of 10 mM, the highest concentration of compound used in each assay is 500 μM. The final concentrations of DMSO were 5% (v/v) in 50 mM Tris 137 mM NaC pH 7.4. Where no test compound was added a final concentration of 5% DMSO was employed.
(§3) Determination of Selectivity
(§4) To determine selectivity of test compounds, these test compounds were assayed for inhibitory activity against other serine proteases including FXa and thrombin. Essentially compounds at increasing concentrations were incubated with each enzyme: FXa (5 nM) and thrombin (5 nM), for 10 mins at 37° C. followed the appropriate chromogenic substrate, S2765 ([…]), and GPR ([…]) respectively in 50 mM Tris, 137 mM NaCl, pH 7.4. Chromogenic substrates S2765 was from Chromogenix, and GPR from Bachem. Kinetic readings at 405 nm were monitored every 12 secs for a total duration of 3 hours at 37° C. Gradients of initial rates were determined and employed to calculate IC50 values. Values of IC50 were converted to Ki values based on the formula: Ki=IC50/(1+[Substrate]/Km)
(§5) Where [Substrate] denotes the concentration of substrate used in the assay and Km is the determined value of each enzyme with its own substrate.
(§6) The fold selectivity for FXIIa over thrombin for the compounds of the invention has been categorised based on the fold selectivity values, the categories being “+”, “++” and “+++”. The category “+” refers to fold selectivity values less than 10. The category “++” refers to a fold selectivity value of 10 to 100. The category “+++” refers to fold selectivity values greater than 100.
The fold selectivity for FXIIa over FXa for the compounds of the invention has been categorised based on the fold selectivity values, the categories being “o”, “oo” and “ooo”. The category “o” refers to fold selectivity values less than 10. The category “oo” refers to a fold selectivity value of 10 to 100. The category “ooo” refers to fold selectivity values greater than 100.

[2] = target: T1, FXIIa (Homo sapiens, UniProt P00748); assay: Determination of Factor XIIa inhibition, chromogenic substrate S-2302 assay; details: human FXIIa alpha
T1 sequence (P00748 373-615 limits assumed): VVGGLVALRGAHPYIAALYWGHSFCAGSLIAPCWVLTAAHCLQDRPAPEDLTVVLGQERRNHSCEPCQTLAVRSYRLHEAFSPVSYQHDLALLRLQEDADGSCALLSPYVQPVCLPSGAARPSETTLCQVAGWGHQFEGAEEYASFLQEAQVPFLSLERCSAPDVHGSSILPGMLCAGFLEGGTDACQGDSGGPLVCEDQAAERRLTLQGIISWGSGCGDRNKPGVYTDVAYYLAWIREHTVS
T1 sequence (P00748 20-372 partner limits assumed): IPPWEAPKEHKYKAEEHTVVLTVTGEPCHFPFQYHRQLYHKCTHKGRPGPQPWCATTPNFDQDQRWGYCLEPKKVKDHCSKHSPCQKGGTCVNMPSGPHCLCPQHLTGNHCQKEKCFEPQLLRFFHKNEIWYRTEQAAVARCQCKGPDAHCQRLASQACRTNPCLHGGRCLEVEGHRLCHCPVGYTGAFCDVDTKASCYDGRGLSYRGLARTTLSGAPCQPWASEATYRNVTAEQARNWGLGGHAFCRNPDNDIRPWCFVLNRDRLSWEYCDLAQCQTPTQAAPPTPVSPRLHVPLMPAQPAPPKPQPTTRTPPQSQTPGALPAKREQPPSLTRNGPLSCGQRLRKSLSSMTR
Description: as §1, §2
Determination of Factor XIa Inhibition
Factor XIa activity was measured using a chromogenic substrate S-2302 (Chromogenix). Various concentrations of compound were incubated with 10 nM of FXIIa and incubated at 37° C. for 10 minutes in 50 mM Tris, 137 mM NaCl, pH 7.4, prior to the addition of a final concentration of 450 µM S-2302 chromogenic substrate. Kinetic readings at 405 nm were monitored every 12 secs for a total duration of 3 hours at 37° C. Gradients of initial rates were determined and employed to calculate IC50 values. Values of IC50 were converted to Ki values based on the formula: Ki=IC50/(1+[Substrate]/Km).
The activity of the compounds of the invention has been categorised based on the Ki values, the categories being “*”, “**” and “***”. […] The category “**” refers to compounds with a Ki value of 0.2 μM to 2 μM.

[3] = target: T2, thrombin (Homo sapiens, UniProt P00734); assay: Determination of selectivity: thrombin inhibition, chromogenic substrate GPR assay; details: fold selectivity for FXIIa over thrombin
T2 construct: FXa (5 nM) and thrombin (5 nM)
Description: as §1, §2, §3, §4, §5, §6

Sequence of FXa (P00742 235-488 limits assumed): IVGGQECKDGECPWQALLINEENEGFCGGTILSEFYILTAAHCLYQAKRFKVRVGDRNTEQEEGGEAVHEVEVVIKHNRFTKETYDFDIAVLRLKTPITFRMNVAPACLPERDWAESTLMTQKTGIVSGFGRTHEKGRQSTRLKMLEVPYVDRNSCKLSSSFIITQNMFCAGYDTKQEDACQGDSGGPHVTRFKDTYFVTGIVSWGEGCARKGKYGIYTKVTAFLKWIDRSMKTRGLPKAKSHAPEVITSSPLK
Sequence of FXa (P00742 41-179 partner limits assumed): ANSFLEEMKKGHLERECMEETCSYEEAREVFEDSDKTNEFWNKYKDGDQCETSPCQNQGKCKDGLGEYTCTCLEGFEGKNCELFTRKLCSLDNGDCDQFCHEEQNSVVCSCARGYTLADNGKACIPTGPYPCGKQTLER

FXa (human)/FXIIa alpha (human) [1]	Ki [2] [µM]	Structure (SMILES)	Thrombin (human)/FXIIa alpha (human) [3]
∘∘∘	0.2 to 2	COc1ccc(C[C@@H]2C[C@@H](C(=O)NCc3ccc4c(c3)nnn4C)N(C(=O)[C@H]3C[C@@H](N4CCCCC4)CN3)C2)cc1 [Example M00955]	+++ (fold selectivity values greater than 100)
∘∘∘	0.2 to 2	Cn1nnc2cc(CNC(=O)[C@@H]3C[C@@H](c4ccccc4)CN3C(=O)[C@H](N)CCC(=O)N3CCCC3)ccc21 [Example M05155]	+++ (fold selectivity values greater than 100)
∘∘∘	0.2 to 2	COc1ccc(C[C@@H]2C[C@@H](C(=O)NCc3ccc4c(c3)nnn4C)N(C(=O)C3NCCc4cc(Cl)ccc43)C2)cc1 (stereo partly drawn) [Example M05430]	+++ (fold selectivity values greater than 100)
∘∘∘	0.2 to 2	COc1ccc(C[C@@H]2C[C@@H](C(=O)NCc3ccc4c(c3)nnn4C)N(C(=O)[C@H]3C[C@@H](c4ccccc4)CN3)C2)cc1F [Example M05352]	+++ (fold selectivity values greater than 100)
∘∘∘	< 0.2	COc1ccc(C[C@@H]2C[C@@H](C(=O)NCc3ccc4c(c3)nnn4C)N(C(=O)C3NCCc4cc(OC)ccc43)C2)cc1 (stereo partly drawn) [Example M05441]	+++ (fold selectivity values greater than 100)
∘∘	> 2	COc1ccc(C[C@@H]2C[C@@H](C(=O)NCc3ccc4c(c3)nnn4C)N(C(=O)[C@H]3CC(c4c[nH]cn4)CN3)C2)cc1 (stereo partly drawn) [Example M05464]	++ (fold selectivity value of 10 to 100)
∘∘∘	0.2 to 2	Cn1nnc2cc(CNC(=O)[C@@H]3CC(Cc4ccc(C#N)cc4)CN3C(=O)[C@H](N)CCC(=O)N3CCCC3)ccc21 (stereo partly drawn) [Example M05312]	+++ (fold selectivity values greater than 100)
∘∘∘	> 2	Cn1nnc2cc(CNC(=O)[C@@H]3C[C@H](C(F)(F)F)CN3C(=O)[C@H](N)CCC(=O)N3CCCC3)ccc21 [Example M05139]	+++ (fold selectivity values greater than 100)
∘∘∘	0.2 to 2	Cc1ccc(C[C@@H]2C[C@@H](C(=O)NCc3ccc4c(c3)nnn4C)N(C(=O)[C@H]3C[C@@H](c4ccccc4)CN3)C2)cc1 [Example M05328]	++ (fold selectivity value of 10 to 100)
∘∘∘	< 0.2	Cn1nnc2cc(CNC(=O)[C@@H]3CC(Cc4ccccc4C#N)CN3C(=O)[C@H](N)CCC(=O)N3CCCC3)ccc21 (stereo partly drawn) [Example M05320]	+++ (fold selectivity values greater than 100)
–	> 2	CC(=O)N[C@H]1C[C@@H](C(=O)NCc2ccc3c(c2)nnn3C)N(C(=O)[C@H](N)CCc2ccccc2)C1 [Example M05144, (2S,4S)-4-Acetylamino-1-((R)-2-amino-4-phenyl-butyryl)-pyrrolidine-2-carboxylic acid (1-methyl-1H-benzotriazol-5-ylmethyl)-amide]	–
–	> 2	Cn1nnc2cc(CNC(=O)[C@@H]3C[C@@H](Oc4ccccc4)CN3C(=O)[C@H](N)CCc3ccccc3)ccc21 [Example M00948]	–
–	> 2	COc1ccc(C[C@@H]2C[C@@H](C(=O)NCc3ccc4c(c3)nnn4C)N(C(=O)[C@H]3CC(c4cnccc4C)CN3)C2)cc1 (stereo partly drawn) [Example M05408]	–
–	> 2	COc1ccc(C[C@@H]2C[C@@H](C(=O)NCc3ccc4c(c3)nnn4C)N(C(=O)[C@H]3CC(c4cnccc4C(F)(F)F)CN3)C2)cc1 (stereo partly drawn) [Example M05398]	–
–	> 2	COc1ccc(C[C@@H]2C[C@@H](C(=O)NCc3ccc4c(c3)nnn4C)N(C(=O)C(N)CC(C)(C)c3ccccc3)C2)cc1 (stereo partly drawn) [Example M05416]	–
–	> 2	COc1ccc(C[C@@H]2C[C@@H](C(=O)NCc3ccc4c(c3)nnn4C)N(C(=O)C(N)CC(C)(C)c3ccccc3)C2)cc1 (stereo partly drawn) [Example M05415]	–

— patent US12336991B2, “Factor XIIA inhibitors” (UNIVERSITY OF LEEDS, priority 2018, dated 2025)
